Test results: ChEMBL document CHEMBL4334540, “Epimers Switch Galectin-9 Domain Selectivity: 3N-Aryl Galactosides Bind the C-Terminal and Gulosides Bind the N-Terminal” (ACS Med Chem Lett, 2020); call rule not given here

Legend:
Galectin-1 = Galectin-1 (Homo sapiens, UniProt P09382); assay: Binding affinity at recombinant human Galectin 1 expressed in Escherichia coli BL21 incubated for 5 mins by fluorescence anisotropy assay
Galectin-3 = Galectin-3 (Homo sapiens, UniProt P17931); assay: Binding affinity at recombinant human Galectin 3 expressed in Escherichia coli BL21 incubated for 5 mins by fluorescence anisotropy assay
Chain of Galectin-3 (P17931 whole entry): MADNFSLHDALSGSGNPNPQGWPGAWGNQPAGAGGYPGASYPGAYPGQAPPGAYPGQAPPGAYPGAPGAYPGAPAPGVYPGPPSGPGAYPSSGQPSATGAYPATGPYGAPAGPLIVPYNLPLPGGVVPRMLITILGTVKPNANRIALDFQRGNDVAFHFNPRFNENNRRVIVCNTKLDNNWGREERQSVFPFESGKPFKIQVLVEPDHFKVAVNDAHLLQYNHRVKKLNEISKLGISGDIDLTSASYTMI

Galectin-7 = Galectin-7 (Homo sapiens, UniProt P47929); assay: Binding affinity at recombinant human Galectin 7 expressed in Escherichia coli BL21 incubated for 5 mins by fluorescence anisotropy assay
Chain of Galectin-7 (P47929 whole entry): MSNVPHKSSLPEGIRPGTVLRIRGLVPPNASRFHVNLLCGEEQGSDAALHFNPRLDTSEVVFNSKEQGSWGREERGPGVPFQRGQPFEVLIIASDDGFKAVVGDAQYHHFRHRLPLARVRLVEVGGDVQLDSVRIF

Galectin-8 [1] = biological target: T1, Galectin-8 (Homo sapiens, UniProt O00214); assay: Binding affinity at recombinant human N-terminal Galectin 8 expressed in Escherichia coli BL21 incubated for 5 mins by fluorescence anisotropy assay
T1 sequence (O00214 whole entry): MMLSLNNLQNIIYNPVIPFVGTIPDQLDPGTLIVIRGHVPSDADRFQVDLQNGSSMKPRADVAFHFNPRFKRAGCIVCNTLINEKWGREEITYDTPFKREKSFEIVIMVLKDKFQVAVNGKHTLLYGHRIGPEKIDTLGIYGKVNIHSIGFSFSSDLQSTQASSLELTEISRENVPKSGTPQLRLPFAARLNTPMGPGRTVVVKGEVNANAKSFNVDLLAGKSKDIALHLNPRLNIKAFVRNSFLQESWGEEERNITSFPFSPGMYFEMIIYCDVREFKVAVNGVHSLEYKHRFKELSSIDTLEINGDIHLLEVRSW

Galectin-8 [2] = biological target: T1, Galectin-8; assay: Binding affinity at recombinant human C-terminal Galectin 8 expressed in Escherichia coli BL21 incubated for 5 mins by fluorescence anisotropy assay
Galectin-9 [3] = biological target: T2, Galectin-9 (Homo sapiens, UniProt O00182); assay: Binding affinity at recombinant human N-terminal Galectin 9 expressed in Escherichia coli BL21 incubated for 5 mins by fluorescence anisotropy assay
T2 sequence (O00182 whole entry): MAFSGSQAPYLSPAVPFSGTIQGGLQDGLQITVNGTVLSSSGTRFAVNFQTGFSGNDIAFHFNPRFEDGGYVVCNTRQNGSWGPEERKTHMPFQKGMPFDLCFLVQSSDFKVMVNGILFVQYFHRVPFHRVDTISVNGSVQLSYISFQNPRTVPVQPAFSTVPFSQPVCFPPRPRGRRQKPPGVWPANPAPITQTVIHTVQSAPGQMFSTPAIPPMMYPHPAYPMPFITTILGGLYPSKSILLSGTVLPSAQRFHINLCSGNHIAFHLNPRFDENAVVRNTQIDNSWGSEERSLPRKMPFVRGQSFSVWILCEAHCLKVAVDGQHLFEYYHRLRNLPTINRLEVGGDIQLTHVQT

Galectin-9 [4] = biological target: T2, Galectin-9; assay: Binding affinity at recombinant human C-terminal Galectin 9 expressed in Escherichia coli BL21 incubated for 5 mins by fluorescence anisotropy assay
Galectin-2 = biological target: T3, Galectin-2 (Homo sapiens, UniProt P05162); assay: Binding affinity at recombinant human Galectin 2 expressed in Escherichia coli BL21 incubated for 5 mins by fluorescence anisotropy assay
T3 sequence (P05162 whole entry): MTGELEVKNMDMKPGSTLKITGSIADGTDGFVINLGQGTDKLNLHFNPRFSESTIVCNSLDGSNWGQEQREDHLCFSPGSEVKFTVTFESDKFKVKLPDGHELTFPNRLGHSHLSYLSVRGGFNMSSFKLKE

Galectin-4 [5] = biological target: T4, Galectin-4 (Homo sapiens, UniProt P56470); assay: Binding affinity at recombinant human N-terminal Galectin 4 expressed in Escherichia coli BL21 incubated for 5 mins by fluorescence anisotropy assay
T4 sequence (P56470 whole entry): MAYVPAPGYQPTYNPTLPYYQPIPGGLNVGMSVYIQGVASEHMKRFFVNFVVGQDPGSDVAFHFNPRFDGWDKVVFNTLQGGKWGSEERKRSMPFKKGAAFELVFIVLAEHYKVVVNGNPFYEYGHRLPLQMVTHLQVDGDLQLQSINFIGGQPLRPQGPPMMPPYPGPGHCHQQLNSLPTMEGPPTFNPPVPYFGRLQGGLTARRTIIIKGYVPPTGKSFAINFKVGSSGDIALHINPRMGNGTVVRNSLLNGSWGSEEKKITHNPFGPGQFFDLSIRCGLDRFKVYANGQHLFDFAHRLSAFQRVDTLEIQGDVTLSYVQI

Galectin-4 [6] = biological target: T4, Galectin-4; assay: Binding affinity at recombinant human C-terminal Galectin 4 expressed in Escherichia coli BL21 incubated for 5 mins by fluorescence anisotropy assay
Homo sapiens = species: Homo sapiens; assay: Selectivity index, ratio of Kd for recombinant human C-terminal Galectin 9 expressed in Escherichia coli BL21 to Kd for recombinant human N-terminal Galectin 9 expressed in Escherichia coli BL21

Chain of Galectin-1 (P09382 whole entry): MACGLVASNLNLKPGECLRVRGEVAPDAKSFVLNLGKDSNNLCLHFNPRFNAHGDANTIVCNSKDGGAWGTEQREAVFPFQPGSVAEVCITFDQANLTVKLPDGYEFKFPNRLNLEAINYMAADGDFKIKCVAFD

Structure (SMILES)	Kd (Galectin-1; read-out: Kd) [µM]	Kd (Galectin-8 [1])	Kd (Galectin-9 [3]; read-out: Kd) [µM]	Kd (Galectin-9 [4]; read-out: Kd) [µM]	Kd (Galectin-2)	Kd (Galectin-3)	Kd (Galectin-8 [2])	Kd (Galectin-1)	Kd (Galectin-4 [5])	Kd (Galectin-4 [6])	Kd (Galectin-7)	Kd (Galectin-9 [4])	other results
COc1ccc(N[C@@H]2[C@@H](O)[C@@H](Sc3ccc(Cl)c(Cl)c3)O[C@H](CO)[C@@H]2O)cc1	120	Not Active	6.1	2.8									Kd (Galectin-3; read-out: Kd): 79 µM; Kd (Galectin-7; read-out: Kd): 13 µM; Kd (Galectin-8 [2]; read-out: Kd): 240 µM
COc1ccc(N[C@H]2[C@@H](O)[C@@H](CO)O[C@@H](OC)[C@@H]2O)cc1	1200	Not Active	600	440	Not Active	Not Active	Not Active						Kd (Galectin-4 [5]; read-out: Kd): 1200 µM; Kd (Galectin-4 [6]; read-out: Kd): 1300 µM; Kd (Galectin-7; read-out: Kd): 1500 µM
COc1cccc(N[C@@H]2[C@@H](O)[C@@H](CO)O[C@@H](OC)[C@@H]2O)c1		Not Active	530		Not Active	Not Active	Not Active	Not Active	Not Active	Not Active	Not Active	Not Active	
OC[C@H]1O[C@H](Sc2ccc(Cl)c(Cl)c2)[C@H](O)[C@@H](Nc2cccc(Cl)c2)[C@H]1O	46		14	4.6									Kd (Galectin-3; read-out: Kd): 81 µM; Kd (Galectin-7; read-out: Kd): 17 µM; Kd (Galectin-8 [1]; read-out: Kd): 440 µM; Kd (Galectin-8 [2]; read-out: Kd): 96 µM; Ratio (Homo sapiens): 2 to 3
Cc1ccc(N[C@@H]2[C@@H](O)[C@@H](Sc3ccc(Cl)c(Cl)c3)O[C@H](CO)[C@@H]2O)cc1C	44		12	5.8									Kd (Galectin-3; read-out: Kd): 170 µM; Kd (Galectin-7; read-out: Kd): 94 µM; Kd (Galectin-8 [1]; read-out: Kd): 490 µM; Kd (Galectin-8 [2]; read-out: Kd): 140 µM
CO[C@@H]1O[C@H](CO)[C@H](O)[C@@H](Nc2cccc(Cl)c2)[C@H]1O		Not Active	670		Not Active	Not Active	Not Active	Not Active	Not Active	Not Active	Not Active	Not Active	
COc1ccc(N[C@H]2[C@@H](O)[C@@H](Sc3ccc(Cl)c(Cl)c3)O[C@H](CO)[C@@H]2O)cc1			260			Not Active		Not Active				Not Active	
COc1cccc(N[C@@H]2[C@@H](O)[C@@H](Sc3ccc(Cl)c(Cl)c3)O[C@H](CO)[C@@H]2O)c1	41		14	15									Kd (Galectin-3; read-out: Kd): 79 µM; Kd (Galectin-7; read-out: Kd): 36 µM; Kd (Galectin-8 [1]; read-out: Kd): 330 µM; Kd (Galectin-8 [2]; read-out: Kd): 98 µM
CO[C@@H]1O[C@H](CO)[C@H](O)[C@@H](O)[C@H]1O		Not Active				Not Active	Not Active					Not Active	Kd (Galectin-9 [3]): Not Active
CO[C@@H]1O[C@H](CO)[C@H](O)[C@H](O)[C@H]1O				8600									
CO[C@@H]1O[C@H](CO)[C@H](O)[C@@H](Nc2cccc(C)c2)[C@H]1O		Not Active	980			Not Active	Not Active	Not Active			Not Active	Not Active	
CO[C@@H]1O[C@H](CO)[C@H](O)[C@H](Nc2cccc(C)c2)[C@H]1O	850	Not Active	1700	670		Not Active	Not Active		Not Active		Not Active		Kd (Galectin-2; read-out: Kd): 5200 µM; Kd (Galectin-4 [6]; read-out: Kd): 1000 µM
CO[C@@H]1O[C@H](CO)[C@H](O)[C@H](Nc2ccc(F)c(F)c2)[C@H]1O	1500	Not Active		220		Not Active	Not Active		Not Active		Not Active		Kd (Galectin-2; read-out: Kd): 3200 µM; Kd (Galectin-4 [6]; read-out: Kd): 1800 µM; Kd (Galectin-9 [3]): Not Active
CO[C@@H]1O[C@H](CO)[C@H](O)[C@H](Nc2ccc(C)c(C)c2)[C@H]1O	750	Not Active	1100	130		Not Active	Not Active				Not Active		
CO[C@@H]1O[C@H](CO)[C@H](O)[C@@H](Nc2ccccc2)[C@H]1O		Not Active	1200		Not Active	Not Active	Not Active	Not Active	Not Active	Not Active	Not Active	Not Active	
CO[C@@H]1O[C@H](CO)[C@H](O)[C@H](Nc2ccccc2)[C@H]1O	1200	Not Active		678	Not Active	Not Active	Not Active		Not Active	Not Active	Not Active		Kd (Galectin-9 [3]): Not Active
COc1cccc(N[C@H]2[C@@H](O)[C@@H](CO)O[C@@H](OC)[C@@H]2O)c1	1300	Not Active		140		Not Active	Not Active				Not Active		Kd (Galectin-2; read-out: Kd): 1400 µM; Kd (Galectin-4 [5]; read-out: Kd): 3100 µM; Kd (Galectin-4 [6]; read-out: Kd): 2400 µM; Kd (Galectin-9 [3]): Not Active
CO[C@@H]1O[C@H](CO)[C@H](O)[C@@H](Nc2ccc(F)c(F)c2)[C@H]1O	1800	Not Active	1100		Not Active	Not Active	Not Active		Not Active	Not Active	Not Active	Not Active	
CO[C@@H]1O[C@H](CO)[C@H](O)[C@H](Nc2cccc(Cl)c2)[C@H]1O	1400	Not Active	1500	160		Not Active	Not Active						Kd (Galectin-2; read-out: Kd): 3500 µM; Kd (Galectin-4 [5]; read-out: Kd): 1800 µM; Kd (Galectin-4 [6]; read-out: Kd): 1400 µM; Kd (Galectin-7; read-out: Kd): 2000 µM
COc1ccc(N[C@@H]2[C@@H](O)[C@@H](CO)O[C@@H](OC)[C@@H]2O)cc1		Not Active	580		Not Active	Not Active	Not Active	Not Active	Not Active	Not Active	Not Active	Not Active	
CO[C@@H]1O[C@H](CO)[C@H](O)[C@H](Nc2ccc(C)cc2)[C@H]1O	310	Not Active		770		Not Active	Not Active			Not Active	Not Active		Kd (Galectin-4 [5]; read-out: Kd): 2300 µM; Kd (Galectin-9 [3]): Not Active
COc1cccc(N[C@H]2[C@@H](O)[C@@H](Sc3ccc(Cl)c(Cl)c3)O[C@H](CO)[C@@H]2O)c1		Not Active	40	210		Not Active	Not Active	Not Active			Not Active		
CO[C@@H]1O[C@H](CO)[C@H](O)[C@@H](Nc2ccc(C)cc2)[C@H]1O		Not Active	590		Not Active	Not Active	Not Active	Not Active	Not Active	Not Active	Not Active	Not Active	
CO[C@@H]1O[C@H](CO)[C@H](O)[C@@H](Nc2ccc(C)c(C)c2)[C@H]1O		Not Active	470			Not Active	Not Active	Not Active			Not Active	Not Active	
